Experimental data from US5814634A, “Alkylenediamine derivative anti-ulcer drug and antibacterial drug” (Shiseido Co. Ltd., priority 1996, dated 1998).

Assays:
stress ulcer = assay: WIS: Restraint and Water Immersion Stress-Induced Ulcer Inhibition Test; format: in vivo, rat (male Crj:SD or Slc:SD); settings: 100 mg/kg oral, rats, water immersion stress 7 hours
Procedure, shortened: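 Fasted male SD rats (6–7 weeks, 5–8 per group) received compound orally at 100 mg/kg in 0.3% CMC-Na or 0.05% Tween 80; 10 min later, restraint with water immersion (21 °C) for 7 h. Summed glandular erosion length gave the ulcer index; inhibition (%) versus vehicle controls.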

[1] = tested on: isolated gastric fundic gland; assay: CAP: Acid Secretion Inhibition Test In Vitro ([14C]-aminopyrine uptake); format: cell-based, rabbit (male Japanese White); settings: Oryctolagus cuniculus, 40 min; 10^-5 M compound, 10^-5 M histamine, rabbit isolated gastric fundic gland, 37° C., 40 minutes; read-out: CAP: acid secretion inhibitory rate
Procedure, shortened: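 Fundic gland suspension (1.6×10^6 cells/ml in HEPES nutrient buffer) was stimulated with histamine 10^-5 M plus test compound 10^-5 M (final) and [14C]-aminopyrine 0.05 μCi/ml, then shaken 40 min at 37 °C. Pellet and supernatant were scintillation-counted to give the NaSCN-corrected specific aminopyrine accumulation ratio, in duplicate.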

Male Slc:ICR mice = tested on: Male Slc:ICR mice; parameters: species or system mouse (male Slc:ICR); settings: mouse, in vivo
Procedure, shortened: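 Fasted 5-week-old male mice (3 to 5 per group) received a single oral 2,000 mg/kg dose in 0.5% sodium carboxymethyl cellulose, with vehicle controls. Behavior and body weight were followed daily and organs examined at death or one week post-dose. Toxicity was scored 1-5 from mortality and behavioral or organ findings.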

in vitro = settings: rabbit, gastric mucosal cells

Which results are given for `CC(C)=CCOc1ccc(C(=O)NCCN2CCOCC2)cc1OCC=C(C)C` [Example 35]?
WIS: ulcer formation inhibitory rate (stress ulcer): 48%; inhibition at 10 µM [1]: 100%; AT: toxicity at single dose, 5 levels (Male Slc:ICR mice): 4; cytotoxicity at 4 h, 100 µM (in vitro): -17%

What does the source list for `CC(C)=CCOc1ccc(C(=O)NCCN2CCOCC2)cc1` [Example 28]?
WIS: ulcer formation inhibitory rate (stress ulcer): 64%; inhibition at 10 µM [1]: 88%; AT: toxicity at single dose, 5 levels (Male Slc:ICR mice): 3; cytotoxicity at 4 h, 100 µM (in vitro): -39%

Which results are given for `CC(C)=CCC/C(C)=C/COc1ccc(C(=O)NCCN2CCOCC2)cc1` [Example 31]?
WIS: ulcer formation inhibitory rate (stress ulcer): 54%; inhibition at 10 µM [1]: 99%; AT: toxicity at single dose, 5 levels (Male Slc:ICR mice): 5; cytotoxicity at 4 h, 100 µM (in vitro): 15%
